Where “and” joins values, the source holds several entries; their conditions need not be identical. Identical values can stand only once. Like-named read-outs stand apart in the source and are kept apart here. Values belong to the molecule of their own block, whether it stands above or below them.
Assays:
[1] = tested on: Plasmodium falciparum (3D7); experiment: Antimalarial activity in cell-based assay; conditions: 3D7, read-out: IC50, Pf (3D7)
[2] = tested on: OCI-AML-1 cell lines (acute myeloid leukemia); conditions: read-out: IC50, AML-1; ref [17]; cited from earlier work
Mt ODCase [3] = target: T1, Mt ODCase (Methanothermobacter thermautotrophicus, UniProt O26232); conditions: cited from earlier work
[4] = tested on: Plasmodium falciparum (3D7); conditions: read-out: IC50, Pf (3D7); ref [21]; cited from earlier work
CHO = conditions: read-out: IC50, CHO; ref [21]; cited from earlier work
Mt ODCase [5] = target: T1, Mt ODCase; experiment: Time-dependent inactivation of Mt ODCase; type: biochemical, Methanobacterium thermoautotrophicum
Mt ODCase [6] = target: T1, Mt ODCase; conditions: cited from earlier work; remark: listed apart in the source
human ODCase [7] = target: T2, human ODCase (Homo sapiens, UniProt P11172); conditions: read-out: ODCase Ki, human; competitive inhibition; ref [15],[16],[17]; cited from earlier work
[8] = tested on: OCI-AML-1 cell lines (acute myeloid leukemia); experiment: Anticancer activity in cell-based assay; conditions: AML1, read-out: IC50, AML-1
ODCase = ODCase (Methanothermobacter thermautotrophicus, UniProt O26232); experiment: Mass spectral analysis of enzyme-inhibitor complexes; parameters: species or system Methanobacterium thermoautotrophicum; conditions: enzyme incubated with inhibitor; identical results with human ODCase
Mt ODCase [9] = target: T1, Mt ODCase; experiment: Reversible, competitive inhibition of Mt ODCase; type: biochemical, Methanobacterium thermoautotrophicum
human ODCase [10] = target: T2, human ODCase; experiment: Reversible, competitive inhibition of human ODCase; type: biochemical
[11] = ODCase Ki, Mt, competitive inhibition, ITC, 55°C

IC50 [1]: 0.022 ± 0.002 µM
Structure (SMILES): CCN(CC)CCCC(C)Nc1ccnc2cc(Cl)ccc12 (centres unmarked) [Chloroquine]

Structure (SMILES): O=c1cnn([C@@H]2O[C@H](CO)[C@@H](O)[C@H]2O)c(=O)[nH]1 [Compound 5, 6-azauridine]
IC50 [2]: 6.1 µM

Structure (SMILES): NC(=O)c1cc(=O)[nH]c(=O)n1[C@@H]1O[C@H](COP(=O)(O)O)[C@@H](O)[C@H]1O [Compound 6-CONH2-UMP, 6-Amido-UMP]
Ki (Mt ODCase [3]; read-out: Ki, Mt ODCase, text value in mM, ref [15],[21]): 1.32 ± 0.04 mM
Ki (Mt ODCase [3]; read-out: ODCase Ki, Mt, competitive inhibition, ref [15],[21]): 0.00132 ± 4e-05 mM

Structure (SMILES): O=c1cc(I)n([C@@H]2O[C@H](CO)[C@@H](O)[C@H]2O)c(=O)[nH]1 [Compound 6-I-uridine, 6-iodouridine]
IC50 [4]: 6.2 ± 0.7 µM
IC50 (CHO): 366 ± 45 µM

Structure (SMILES): O=c1cc(I)n([C@@H]2O[C@H](COP(=O)(O)O)[C@@H](O)[C@H]2O)c(=O)[nH]1 [Compound 10, 6-iodo-UMP]
second-order rate constant relative to 2′-deoxy-2′-fluoro analog 33 (Mt ODCase [5]; higher than 33): ~ 5 orders of magnitude
kobs/[I], M. thermoautotrophicum ODCase (Mt ODCase [6]; irreversible inactivation, ref [16],[22]): 260000 M⁻¹ s⁻¹
kinact (Mt ODCase [6]; text value for the ribofuranosyl analog, ref [16],[22]): 260000 h⁻¹

Structure (SMILES): N#Cc1cc(=O)[nH]c(=O)n1[C@@H]1O[C@H](COP(=O)(O)O)[C@@H](O)[C@H]1O [Compound 11, 6-CN-UMP]
Ki (Mt ODCase [3]; read-out: ODCase Ki, Mt, competitive inhibition, ref [15],[16],[17]): 0.0286 ± 0.0021 mM
Ki (human ODCase [7]): 204 ± 11 µM

Structure (SMILES): [N-]=[N+]=Nc1c(F)c(=O)[nH]c(=O)n1[C@@H]1O[C@H](COP(=O)(O)O)[C@@H](O)[C@H]1O [Compound 12, 6-azido-5-fluoro-UMP]
kinact, Mt ODCase (Mt ODCase [6]; first-order rate of inactivation, ref [17]): 41 ± 3 h⁻¹
Ki (Mt ODCase [6]; read-out: KI, Mt ODCase, time-dependent inactivation, ref [17]): 18.2 ± 0.0036 µM

IC50 [8]: > 50 µM
Structure (SMILES): O=c1cc(I)n([C@@H]2O[C@H](CO)[C@@H](O)[C@H]2F)c(=O)[nH]1 [Compound 27, 2′-Deoxy-2′-fluoro-6-iodo-β-D-uridine]

IC50 [8]: > 50 µM
Structure (SMILES): [N-]=[N+]=Nc1cc(=O)[nH]c(=O)n1[C@@H]1O[C@H](CO)[C@@H](O)[C@H]1F [Compound 28, 6-Azido-2′-deoxy-2′-fluoro-β-D-uridine]

IC50 [8]: > 50 µM
Structure (SMILES): N#Cc1cc(=O)[nH]c(=O)n1[C@@H]1O[C@H](CO)[C@@H](O)[C@H]1F [Compound 29, 6-Cyano-2′-deoxy-2′-fluoro-β-D-uridine]

IC50 [8]: > 50 µM
Structure (SMILES): NC(=O)c1cc(=O)[nH]c(=O)n1[C@@H]1O[C@H](CO)[C@@H](O)[C@H]1F [Compound 30, 6-Amido-2′-deoxy-2′-fluoro-β-D-uridine]

IC50 [8]: > 50 µM
Structure (SMILES): N#Cc1cn([C@@H]2O[C@H](CO)[C@@H](O)[C@H]2F)c(=O)[nH]c1=O [Compound 31, 5-Cyano-2′-deoxy-2′-fluoro-β-D-uridine]

Structure (SMILES): N#Cc1cc(=O)[nH]c(=O)n1[C@@H]1O[C@H](COP(=O)(O)O)[C@@H](O)[C@H]1F [Compound 35, 6-Cyano-2′-deoxy-2′-fluoro-β-D-uridine-5′-O-monophosphate]
enzyme-inhibitor complex by mass spectrometry (ODCase): covalent complex
Ki (Mt ODCase [9]; [11]): 0.037 ± 0.0025 mM
KI (inactivation) (Mt ODCase [5]; read-out: KI, equilibrium inhibition constant of inactivation, Mt ODCase, time-dependent inactivation): 30000 ± 6000 µM
kinact (Mt ODCase [5]; read-out: kinact, Mt ODCase): 0.000556 s⁻¹
Ki (human ODCase [10]): > 2000 µM
inhibition of the catalytic activity of human ODCase (human ODCase [10]; up to a concentration of 2 mM): did not inhibit

Structure (SMILES): NC(=O)c1cc(=O)[nH]c(=O)n1[C@@H]1O[C@H](COP(=O)(O)O)[C@@H](O)[C@H]1F [Compound 36, 6-Amido-2′-deoxy-2′-fluoro-β-D-uridine-5′-O-monophosphate]
Ki (Mt ODCase [9]; Ki, Mt ODCase, text values in mM): > 3 mM and 3.32 mM
Ki (Mt ODCase [9]; [11]): 3.32 ± 0.176 mM
Ki (human ODCase [10]): > 3000 µM

Structure (SMILES): N#Cc1cn([C@@H]2O[C@H](COP(=O)(O)O)[C@@H](O)[C@H]2F)c(=O)[nH]c1=O [Compound 37, 5-Cyano-2′-deoxy-2′-fluoro-β-D-uridine-5′-O-monophosphate]
Ki (Mt ODCase [9]; [11]): 0.36 ± 0.023 mM
Ki (human ODCase [10]): 759 ± 88 µM
